Laboratory results published in patent publication US9937198B2, “Multi-functional composition and preparation method and application thereof” (Suzhou Sciscape Bio-Pharmaceutical Technology Co., Ltd., priority 2013, dated 2018).

Legend:
Type in all cases: in vivo
normal mice [1] = test: Sleep in normal mice with subdissociative sodium pentobarbital; details: 13.3 mL/kg intragastric; sodium pentobarbital 15 mg/kg i.p. 20 to 30 min later
Experimental: (§1) Male ICR mice, 8 weeks old and 20±2 g in body weight, were purchased from Beijing HFK Bioscience Co., Ltd.
(§2) The solutions of Compositions 1 to 7 prepared in this example were used.
After the mice were fed normally for 3 days, they were given no food but water for 18 to 24 h. By body weight, the mice were randomly divided into 11 groups, i.e., a blank control group, administration groups 1 to 7 and negative control groups 1 to 3. The mice in administration groups 1 to 7 were intragastrically administered with the solutions of Compositions 1 to 7 at a dose of 13.3 mL/kg body weight while the mice in the blank control group were intragastrically given sterile water for medical use at a dose of 13.3 mL/kg body weight. The mice in negative control groups 1 to 3 were intragastrically given the solution of trehalose (0.15 g/mL), the solution of validamycin (0.3 mg/mL) and the solution of algal polysaccharides (0.15 g/mL) at a dose of 13.3 mL/kg body weight respectively. Twenty to 30 min post administration, all mice were intraperitoneally injected with sodium pentobarbital at a subdissociative dose (15 mg/kg). The time when the righting reflex disappeared and sleep duration of the mice were recorded.

ovariectomized rats = test: Osteoporosis amelioration in ovariectomized rats; details: femur, 13.3 mL/kg once a day for 30 days
Excerpt: Female SD rats, 250 g to 280 g in body weight, were purchased from Shanghai Sippr-BK Lab Animal Co., Ltd.
as §2
After receiving ovariectomy, rats were fed normally for one week. By body weight, the rats were randomly divided into 11 groups, i.e., a blank control group, administration groups 1 to 7 and negative control groups 1 to 3. The rats in administration groups 1 to 7 were intragastrically administered with the solutions of Compositions 1 to 7 respectively at a dose of 13.3 mL/kg body weight while the rats in the blank control group were intragastrically given sterile water for medical use at a dose of 13.3 mL/kg body weight. The rats in negative control groups 1 to 3 were intragastrically given the solution of trehalose (0.15 g/mL), the solution of validamycin (0.3 mg/mL) and the solution of algal polysaccharides (0.15 g/mL) at a dose of 13.3 mL/kg body weight respectively. Administration was conducted once a day and lasted for 30 days. Normal rats were arranged in a normal group and fed normally all the time. Twenty to 30 min post last administration, all rats were killed by cervical vertebrae dislocation, and their femurs were taken out. Then, the bone density and mineral content in the femur were determined.

normal mice [2] = test: Enterocinesia in normal mice (carbon powder movement in small intestine); details: 13.3 mL/kg intragastric; for Movement distance of carbon powder: carbon powder 20 to 30 min later, killed 15 to 20 min after; for Movement distance of carbon powder/full length of small intestine: normal mice
Experimental: as §1
Solutions of Compositions 1 to 7 were used in the experiment.
A suspension of carbon powder of 0.1 g/mL was also used. In particular, 1 g of carbon powder was added to and then suspended evenly in 10 mL of normal saline.
After the mice were fed normally for 3 days, they were given no food but water for 18-24 h. By the body weight, the mice were randomly divided into 11 groups, i.e., a blank control group, administration groups 1 to 7 and negative control groups 1 to 3. The mice in administration groups 1 to 7 were respectively intragastrically administered with the solutions of Compositions 1 to 7 at a dose of 13.3 mL/kg body weight while the mice in the blank control group were intragastrically given sterile water for medical use at a dose of 13.3 mL/kg body weight. The mice in negative control groups 1 to 3 were respectively intragastrically administered with the solution of trehalose (0.15 g/mL), the solution of validamycin (0.3 mg/mL) and the solution of algal polysaccharide (0.15 g/ml) at a dose of 13.3 mL/kg body weight. At 20 to 30 min post administration, all mice were intragastrically given the suspension of carbon powder at a dose of 0.2 mL/10 g body weight. At 15 to 20 min post the administration of the carbon powder suspension, the mice were killed by cervical vertebrae dislocation and then were quickly dissected to separate the small intestines. The movement distance of the carbon powder (the distance measured from the carbon powder at the forefront to the end of the duodenum closer to heart) and the full length of the small intestine were measured.

normal mice [3] = test: Acetic acid writhing (pain) in normal mice; details: for Time of initial writhing: 13.3 mL/kg intragastric, 0.6% acetic acid i.p. 20 min later; for Pain inhibition ratio: relative to number of writhings in blank control group; for Number of writhings: within 30 min after acetic acid injection
Excerpt: as §1, §2
After mice were normally fed for 3 days, they were randomly divided into 11 groups depending on body weight, i.e., a blank control group, administration groups 1 to 7 and negative control groups 1 to 3, by body weight. The mice in administration groups 1 to 7 were intragastrically given the solutions of Compositions 1 to 7 respectively at a dose of 13.3 mL/kg body weight while the mice in the blank control group were intragastrically given sterile water for medical use at a dose of 13.3 mL/kg body weight. The mice in negative control groups 1 to 3 were intragastrically given the solution of trehalose (0.15 g/mL), the solution of validamycin (0.3 mg/mL) and the solution of algal polysaccharides (0.15 g/mL) at a dose of 13.3 mL/kg body weight respectively. Twenty minutes after the administration, the mice were intraperitoneally administered with 0.2 ml of solution of acetic acid (0.6%). Then, the number of writhing and time when initial writhing occurred in mice were observed within 30 min after injection of acetic acid solution and the pain inhibition ratio (pain inhibition ratio=(number of writhings in the blank control group—number of writhings in the administration group)/number of writhings in the blank control group) was calculated.

normal mice [4] = test: Loaded swimming in normal mice; details: 2 g weight on tail, 20 min after 13.3 mL/kg intragastric
Excerpt: Female ICR mice, 8 weeks old and 20±2 g in body weight, were purchased from Beijing HFK Bioscience Co., Ltd.
The solutions of Composition 1 to 7 prepared in this example were used.
After the mice were fed normally for 3 days, they were randomly divided into 11 groups by body weight, i.e., a blank control group, administration groups 1 to 7 and negative control groups 1 to 3. The mice in administration groups 1 to 7 were intragastrically administered with the solution of Compositions 1 to 7 respectively a dose of 13.3 mL/kg body weight while the mice in the blank control group were intragastrically given sterile water for medical use at a dose of 13.3 mL/kg body weight. The mice in negative control groups 1 to 3 were intragastrically given the solution of trehalose (0.15 g/mL), the solution of validamycin (0.3 mg/mL) and the solution of algal polysaccharides (0.15 g/mL) respectively at a dose of 13.3 mL/kg body weight. Twenty minutes after the administration, a weight of 2 g was fixed to the tail of each mouse and the mice were put into a pool to swim with load. The bath temperature was 25±2° C., and the depth was more than 30 cm. The survival time in the loaded swimming was recorded (when all parts of a mouse were under water for 10 s, the mouse was considered to be unable to rise to the surface).

`OCC1=C[C@H](N[C@H]2C[C@H](CO)[C@@H](O[C@@H]3O[C@H](CO)[C@@H](O)[C@H](O)[C@H]3O)[C@H](O)[C@H]2O)[C@H](O)[C@@H](O)[C@@H]1O` [validamycin] was tested, and the Sleep duration (normal mice [1]) was 29.87 ± 1.58 min, the “Time when righting reflex disappeared” value (normal mice [1]) was 3.11 ± 0.21 min and the Bone density (ovariectomized rats) was 0.1063 ± 0.0222 g/cm^2. The Mineral content (ovariectomized rats) was 0.1212 ± 0.0311 g/cm, the “Movement distance of carbon powder” value (normal mice [2]) was 29.3 ± 2.34 cm and the “Movement distance of carbon powder/full length of small intestine” value (normal mice [2]) was 66.3 ± 6.57%. For the same compound, the “Time of initial writhing” value (normal mice [3]) was 3.6 ± 1.6 min, the Pain inhibition ratio (normal mice [3]) was 0.0% and the Number of writhings (normal mice [3]) was 51.9 ± 2.1. It also gave a Survival time (normal mice [4]) of 12.54 ± 1.08 min.

`OC[C@H]1O[C@H](O[C@H]2O[C@H](CO)[C@@H](O)[C@H](O)[C@H]2O)[C@H](O)[C@@H](O)[C@@H]1O` [trehalose] was tested, and the Sleep duration (normal mice [1]) was 30.54 ± 2.17 min, the “Time when righting reflex disappeared” value (normal mice [1]) was 2.49 ± 0.14 min and the Bone density (ovariectomized rats) was 0.1037 ± 0.0211 g/cm^2. For the same compound, the Mineral content (ovariectomized rats) was 0.1245 ± 0.0374 g/cm, the “Movement distance of carbon powder” value (normal mice [2]) was 33.6 ± 3.40 cm and the “Movement distance of carbon powder/full length of small intestine” value (normal mice [2]) was 71.9 ± 8.20%. For the same compound, the “Time of initial writhing” value (normal mice [3]) was 3.4 ± 1.1 min, the Pain inhibition ratio (normal mice [3]) was 0.0% and the Number of writhings (normal mice [3]) was 51.3 ± 1.6. For the same compound, the Survival time (normal mice [4]) was 13.45 ± 2.54 min.
